The values below come from PMC5659721 (Journal of medicinal chemistry, 2017).

Test [1] deals with T1, wild-type TTR (Homo sapiens, UniProt P02766). Kind of test: Co-crystallography / X-ray diffraction analysis of TTR·ligand complexes. The settings on record: co-crystal structures.
The target of the next test is TTR (Homo sapiens, UniProt P02766). The test can be described thus: Reversibility of binding assessed with mass spectrometry. The conditions noted are these: mass spectrometry (Figure S3).
Test [2] deals with T1, wild-type TTR. The test can be described thus: Competitive fluorescence. The settings on record: 5 vs 1, 6 vs 2. Format: binding.
For test [3], the target named is T1, wild-type TTR. The settings on record: orientation in T4-binding site; cited from earlier work.

With `O=C(O)c1cccc(/C=C/c2ccc(B(O)O)cc2Cl)c1` [Compound 8, 3-[(1E)-2-(2-Chloro-4-boronic Acid)ethenyl]-benzoic], at wild-type TTR [1], the “covalent interaction / boronic ester formation with binding-pocket residues” value was “did not exhibit covalent interactions”. Consider `OB(O)c1ccc(/C=C/c2ccc(B(O)O)cc2Cl)c(Cl)c1` [Compound 10, 1,1′-(1E)-(1,2-Ethenediyl)bis[2-chloro-4-boronic acid]-benzene], for which the “reversibility of binding with TTR” value on TTR is on record as “reversible”. In the case of `O=C(O)c1cccc(/C=C/c2ccc(B(O)O)cc2)c1` [Compound 6, 3-[(1E)-2-(4-Boronic acid)ethenyl]-benzoic Acid], the “Kd,2 fold higher than those of stilbenes 1 and 2, respectively” value at wild-type TTR [2] is 2 fold. For the same compound, the “covalent interaction / boronic ester formation with binding-pocket residues” value on wild-type TTR [1] is “did not exhibit covalent interactions”. Regarding `OB(O)c1ccc(/C=C/c2cc(O)cc(O)c2)c(Cl)c1` [Compound 4, 5-[(1E)-2-(2-Chloro-4-boronic Acid)ethenyl]-1,3-benzenediol], the “covalent interaction / boronic ester formation with binding-pocket residues” value at wild-type TTR [1] is listed as “did not exhibit covalent interactions”. Still for that read-out and setting: the value for `OB(O)c1ccc(/C=C/c2cc(O)cc(O)c2)cc1` [Compound 2, 5-[(1E)-2-(4-Boronic acid)ethenyl]-1,3-benzenediol] was “did not exhibit covalent interactions”. Turning to `O=C(O)c1cccc(/C=C/c2ccc(O)cc2)c1` [Compound 5, 3-[(1E)-2-(4-Hydroxyphenyl)ethenyl]-benzoic Acid], the “Kd,2 fold higher than those of stilbenes 1 and 2, respectively” value at wild-type TTR [2] is reported as 3 fold.

For the compound `O=C(O)c1ccc2nc(-c3cc(Cl)cc(Cl)c3)oc2c1` [Compound 12, 2-(3,5-dichlorophenyl)-6-benzoxazolecarboxylic acid], the binding mode result on wild-type TTR [3] is listed as “forward ^d”.
